This note sets out measurements from patent US20180344671A1, “Cysteamine as Neutrophil Elastase Inhibitor” (Novabiotics Limited, priority 2017, published 2018).

Assay [1] concerns the target T1, human neutrophil elastase (Homo sapiens, UniProt P08246).
T1 sequence (P08246 30-267): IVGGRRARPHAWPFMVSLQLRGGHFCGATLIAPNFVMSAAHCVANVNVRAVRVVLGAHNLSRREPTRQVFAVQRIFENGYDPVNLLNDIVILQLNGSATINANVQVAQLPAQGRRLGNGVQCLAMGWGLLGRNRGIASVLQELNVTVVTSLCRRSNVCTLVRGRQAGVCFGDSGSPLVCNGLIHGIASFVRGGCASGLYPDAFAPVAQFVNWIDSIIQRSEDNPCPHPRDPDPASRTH
Nature of the assay: SDS PAGE of recombinant human neutrophil elastase treated with cysteamine and derivatives. The conditions noted are these: FIG. 3; 2.5 μg NE with 2.5 or 5 μg compound, 1 h at 37° C., 8-16% Tris-Glycine SDS gel. How it is done: FIG. 3: The banding pattern and relative staining intensity of recombinant human neutrophil elastase is altered by the addition of cysteamine bitartrate and cysteamine free base. […] This 8-16% gradient Tri-Glycine SDS gel is loaded with a molecular weight marker and: 1. Recombinant human neutrophil elastase [2.5 μg total]; 2. Recombinant human neutrophil elastase [2.5 μg total] and cysteamine bitartrate [2.5 μg total]; 3. Recombinant human neutrophil elastase [2.5 μg total] and cysteamine bitartrate [5 μg total]; 4. Recombinant human neutrophil elastase [2.5 μg total] and cysteamine free base [2.5 μg total]; 5. Recombinant human neutrophil elastase [2.5 μg total] and cysteamine free base [5 μg total]; 6. Recombinant human neutrophil elastase [2.5 μg total] and cystamine dihydrochloride [2.5 μg total]; 7. Recombinant human neutrophil elastase [2.5 μg total] and cystamine dihydrochloride [5 μg total].
Recombinant proteins were treated with or without cysteamine and its derivatives at the concentrations stated in the figures below for 1 h at 37° C. prior to addition of 2× sample buffer and electrophoretic separation on pre-cast 8-16% tris-glycine SDS polyacrylamide gradient gel (Life Technologies) under a constant voltage of 120V in tris-glycine running buffer until the dye front reached the end of the gel. Samples were not heated prior to loading to minimize denaturation of disulphide bonds on the denaturing gel. Precision Plus (Bio-Rad) prestained protein standards were used alongside samples. After electrophoresis gels were carefully removed from the plastic cassettes and washed in sterile distilled water to remove SDS 3× for 5 min. Protein bands were visualized using coomassie-based Simply Blue™ Safe Stain (Life Technologies) staining for 1 h at room temperature. The gel was washed overnight in sterile distilled water, and for a further hour in fresh water prior to photographing.

For assay [2], the target named is T1, human neutrophil elastase. Nature of the assay: Neutrophil Elastase Inhibitor Screening Kit (Sigma MAK213), fluorometric. Type of assay: biochemical. Set-up: purchased Sigma-Aldrich MAK213. To be noted: for Relative inhibition of NE activity (%): 30 min, 37° C.; for effect on human neutrophil elastase activity measured fluorometrically: FIG. 2, result in words. The method, then: Neutrophil Elastase Inhibitor Screening Kit is available from Sigma-Aldrich, catalogue number MAK213. This kit measures neutrophil elastase activity by detecting the hydrolysis and release of a fluorescent product. It allows for the screening of unknown substances for inhibitory activity and compares with a positive inhibitor control. Cysteamine free base, cysteamine bitartrate, and cystamine dihydrochloride were prepared in the assay buffer provided at four times the final testing concentration and combined with enzyme and substrate as appropriate and as defined in the full protocol. Samples were prepared in 96 well microtiter plates with black well walls. Background fluorescence can be determined by omitting the neutrophil elastase from a sample blank control. Fluorescence was measured at 400ex/505em nm on a Biotek Synergy plate reader over 30 min at an incubation temperature of 37° C. Relative inhibition is determined by the following equations: Slope=(Fluorescence 2−Fluorescence 1)/(Time 2−Time 1)=delta fluorescence/minute % Relative Inhibition=((SlopeEC−SlopeSM)/SlopeEC))×100 Where: SlopeSM=the slope of the sample inhibitor (cysteamine and derivatives) & SlopeEC=the slope of the Enzyme control.

`NCCS.O=C(O)C(O)C(O)C(=O)O` (stereo not drawn) [Cysteamine bitartrate, cysteamine bitartrate]: the “banding pattern and relative staining intensity of recombinant human neutrophil elastase” value in assay [1] is “altered”. For the same molecule, the results for the “Relative inhibition of NE activity (%)” value in assay [2] (Cysteamine bitartrate concentration 20 μg/ml), in assay [2] (Cysteamine bitartrate concentration 200 μg/ml) and in assay [2] (Cysteamine bitartrate concentration 2000 μg/ml) were 12.526%, 30.689% and 86.639%, respectively. Further, the “effect on human neutrophil elastase activity measured fluorometrically” value (from here on “effect”) in assay [2] is on record as “effected human neutrophil elastase activity”.

Consider `NCCS` [cysteamine free base, NH2—CH2—CH2—SH], for which the “banding pattern and relative staining intensity of recombinant human neutrophil elastase” value in assay [1] is given as “altered”. In assay [2], the “effect” value is “effected human neutrophil elastase activity”.

Consider `Cl.Cl.NCCSSCCN` [Cystamine dihydrochloride, cystamine dihydrochloride], for which the “banding pattern and relative staining intensity of recombinant human neutrophil elastase” value in assay [1] is listed as “less of an effect”. Also, the “effect” value in assay [2] is given as “minimal effect”.
